Results published in US7135466B2 (Kirin Beer Kabushiki Kaisha, priority 1999, dated 2006).
Read-outs that look alike come from different tables or passages of the source.

Key:
PDGF-Ra = molecular target: T1, PDGF-Ra (Homo sapiens, UniProt P16234); test: Inhibitory activity against PDGF-Ra phosphorylation by PDGF-AA stimulation using G292; type: cell-based; settings: for IC50: > means inhibition at indicated concentration not more than 50%, < and << not less than 50%, read-out: PDGF (E) IC50; for inhibition at 0.1 µM: G292, figure within parentheses in >100( ), at 100 nM, read-out: PDGF (E) inhibition (%) at 100 nM
T1 construct: host or cells: G-292 human osteosarcoma cells
T1 sequence (P16234 24-1089): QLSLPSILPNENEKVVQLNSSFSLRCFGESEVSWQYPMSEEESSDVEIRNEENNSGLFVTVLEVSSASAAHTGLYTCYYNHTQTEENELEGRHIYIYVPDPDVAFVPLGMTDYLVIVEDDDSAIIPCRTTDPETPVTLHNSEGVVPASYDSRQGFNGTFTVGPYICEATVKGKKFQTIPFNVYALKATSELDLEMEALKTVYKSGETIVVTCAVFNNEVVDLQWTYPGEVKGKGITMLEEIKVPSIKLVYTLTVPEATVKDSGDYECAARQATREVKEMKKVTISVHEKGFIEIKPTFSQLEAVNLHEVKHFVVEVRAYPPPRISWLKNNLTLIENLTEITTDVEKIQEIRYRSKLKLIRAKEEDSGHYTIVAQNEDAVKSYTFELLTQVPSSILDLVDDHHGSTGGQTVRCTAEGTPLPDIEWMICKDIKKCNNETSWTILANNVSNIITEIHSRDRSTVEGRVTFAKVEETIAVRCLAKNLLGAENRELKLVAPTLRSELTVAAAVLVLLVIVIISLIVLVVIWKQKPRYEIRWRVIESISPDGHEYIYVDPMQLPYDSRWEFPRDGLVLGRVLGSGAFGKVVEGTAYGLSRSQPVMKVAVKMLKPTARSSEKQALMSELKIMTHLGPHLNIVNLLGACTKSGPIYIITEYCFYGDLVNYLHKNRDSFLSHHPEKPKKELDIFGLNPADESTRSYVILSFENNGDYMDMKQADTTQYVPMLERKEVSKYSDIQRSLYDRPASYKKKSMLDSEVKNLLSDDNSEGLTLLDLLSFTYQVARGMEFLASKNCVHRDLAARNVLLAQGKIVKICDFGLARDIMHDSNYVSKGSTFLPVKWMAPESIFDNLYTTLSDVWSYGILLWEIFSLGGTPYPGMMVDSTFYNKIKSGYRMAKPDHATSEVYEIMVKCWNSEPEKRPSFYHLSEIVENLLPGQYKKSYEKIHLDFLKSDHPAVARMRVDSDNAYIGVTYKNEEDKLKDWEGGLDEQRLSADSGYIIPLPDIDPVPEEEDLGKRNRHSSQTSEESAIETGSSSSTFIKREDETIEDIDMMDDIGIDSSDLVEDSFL
Procedure, shortened: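 Phosphorylated PDGF-Ra was measured colorimetrically (450 nm) after tyrosine-phosphorylated proteins from G-292 lysates were bound to PY-20-coated wells and detected with anti-PDGF-Ra antibody. Compound preincubation lasted 1 hr, followed by 50 ng/ml PDGF-AA for 5 min.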

c-kit = molecular target: T2, c-kit (Homo sapiens, UniProt P10721); test: Inhibitory activity against c-kit autophosphorylation (MO7e cells, h-SCF); type: cell-based; settings: for IC50: MO7e cells, read-out: c-kit IC50; for inhibition at 1 µM: Mo7e, at 1000 nM
T2 construct: MO7e (human megakaryocytic leukemia cell line) which had been arrested for 20 hr; endogenous in cells; host or cells: MO7e human megakaryocytic leukemia cell line
T2 sequence (P10721 26-976): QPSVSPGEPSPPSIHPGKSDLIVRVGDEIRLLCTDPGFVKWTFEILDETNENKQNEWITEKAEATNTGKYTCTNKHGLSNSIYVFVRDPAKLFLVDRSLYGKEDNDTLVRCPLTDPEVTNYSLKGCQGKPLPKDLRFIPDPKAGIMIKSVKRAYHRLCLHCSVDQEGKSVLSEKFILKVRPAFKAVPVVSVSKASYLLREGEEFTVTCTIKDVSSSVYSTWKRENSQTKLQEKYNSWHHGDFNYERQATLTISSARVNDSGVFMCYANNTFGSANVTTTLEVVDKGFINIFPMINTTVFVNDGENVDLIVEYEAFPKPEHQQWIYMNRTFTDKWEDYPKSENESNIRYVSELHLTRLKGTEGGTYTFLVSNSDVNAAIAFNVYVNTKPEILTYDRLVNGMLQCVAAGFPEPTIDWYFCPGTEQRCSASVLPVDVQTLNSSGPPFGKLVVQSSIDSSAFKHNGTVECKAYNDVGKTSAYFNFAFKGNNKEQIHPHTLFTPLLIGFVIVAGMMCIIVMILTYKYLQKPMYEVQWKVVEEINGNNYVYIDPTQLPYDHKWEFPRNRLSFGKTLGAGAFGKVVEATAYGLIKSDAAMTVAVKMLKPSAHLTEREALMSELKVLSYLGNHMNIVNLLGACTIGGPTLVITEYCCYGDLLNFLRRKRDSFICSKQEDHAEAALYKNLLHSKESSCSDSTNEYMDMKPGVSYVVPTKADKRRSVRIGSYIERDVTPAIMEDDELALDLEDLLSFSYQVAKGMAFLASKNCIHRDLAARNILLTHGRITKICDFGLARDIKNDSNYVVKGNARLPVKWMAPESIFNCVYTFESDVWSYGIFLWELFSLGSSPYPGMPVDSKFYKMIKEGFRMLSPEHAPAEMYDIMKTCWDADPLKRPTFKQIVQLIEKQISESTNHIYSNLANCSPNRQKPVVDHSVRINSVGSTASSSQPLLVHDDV
Procedure, shortened: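 Ligand-induced c-kit tyrosine phosphorylation is measured in MO7e cells that were quiesced 20 hr and preincubated with compound for 1 hr prior to a 5 min pulse of 50 ng/ml human SCF. Phospho-c-kit is detected by anti-phosphotyrosine capture ELISA, A450.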

[1] = figure within parentheses in −( ) or >1000( )

| IC50 (PDGF-Ra; Pharmacological Test Example 1) [nM] | IC50 (c-kit; h-SCF 50 ng/ml) [nM] | IC50 (PDGF-Ra) [nM] | Compound | further results |
| --- | --- | --- | --- | --- |
| < 10 | 35 | – | COc1cc2nccc(Oc3ccc(NC(=O)OCCCOc4ccccc4OC)cc3)c2cc1OC [Example 157, 3-(2-Methoxyphenoxy)propyl N-{4-[(6,7-dimethoxy-4-quinolyl)oxy]phenyl}carbamate] | – |
| 23 | 362 | – | COc1ccc(C(C)OC(=O)Nc2ccc(Oc3ccnc4cc(OC)c(OC)cc34)c(C)c2C)cc1 (stereo not drawn) [Example 33, 1-(4-Methoxyphenyl)ethyl N-{4-[(6,7-dimethoxy-4-quinolyl)oxy]-2,3-dimethylphenyl}carbamate] | – |
| 57 | – | – | COc1cc2nccc(Oc3cc(C)c(NC(=O)OCc4ccc(C(C)(C)C)cc4)cc3C)c2cc1OC [Example 59, 4-(Tert-butyl)benzyl N-{4-[(6,7-dimethoxy-4-quinolyl)oxy]-2,5-dimethylphenyl}carbamate] | inhibition at 1 µM (c-kit; figure in parentheses in −( )): 33% |
| 10 | 418 | – | COc1cc2ncnc(Oc3ccc(NC(=O)OCc4ccccc4Cl)c(Cl)c3)c2cc1OC [Example 318, 2-Chlorobenzyl N-{2-chloro-4-[(6,7-dimethoxy-4-quinazolinyl)oxy]phenyl}carbamate] | – |
| – | – | 17 | COc1cc2nccc(Oc3ccc(NC(=S)NC(=O)Cc4ccccc4Cl)cc3)c2cc1OC [Example 723, N-[2-(2-Chlorophenyl)acetyl]-N′-{4-[(6,7-dimethoxy-4-quinolyl)oxy]phenyl}thiourea] | IC50 (c-kit; 50 ng/ml h-SCF): 380 nM |
| 11 | 32 | – | COc1cc2ncnc(Oc3ccc(NC(=O)OCCCOc4ccccc4F)c(C)c3C)c2cc1OC [Example 146, 3-(2-Fluorophenoxy)propyl N-{4-[(6,7-dimethoxy-4-quinazolinyl)oxy]-2,3-dimethylphenyl}carbamate] | – |
| – | – | 26 | COc1cc2nccc(Oc3ccc(NC(=S)NC(=O)C4C(C)(C)C4(C)C)cc3)c2cc1OC [Example 759] | IC50 (c-kit; 50 ng/ml h-SCF): 323 nM |
| – | – | 23 | CCN(CCNC(=O)Nc1cc(C)c(Oc2ccnc3cc(OC)c(OC)cc23)cc1C)c1cccc(C)c1 [Example 662, N-{4-[(6,7-Dimethoxy-4-quinolyl)oxy]-2,5-dimethylphenyl}-N′-[2-(ethyl-3-methylanilino)ethyl]urea] | IC50 (c-kit; 50 ng/ml h-SCF): 296 nM |
| – | – | 132 | COc1cc2nccc(Oc3ccc(NC(=S)NC(=O)c4ccccc4C(F)(F)F)cc3F)c2cc1OC [Example 917, N-{4-[(6,7-Dimethoxy-4-quinolyl)oxy]-3-fluorophenyl}-N′-[2-(trifluoromethyl)benzoyl]thiourea] | IC50 (c-kit; h-SCF stimulation): 546 nM |
| – | – | > 100 | COc1cc2nccc(Oc3cc(C)c(NC(=O)NC4CCN(Cc5ccccc5)CC4)cc3C)c2cc1OC [Example 634, N-(1-Benzyl-4-piperidyl)-N′-{4-[(6,7-dimethoxy-4-quinolyl)oxy]-2,5-dimethylphenyl}urea] | inhibition at 0.1 µM (PDGF-Ra): 40%; inhibition at 1 µM (c-kit; [1]): 13% |
| 38 | – | – | COc1cc2ncnc(Oc3ccc(NC(=O)OC(C)c4cc(F)c(F)cc4F)c(Cl)c3)c2cc1OC (stereo not drawn) [Example 96, 1-(2,4,5-Trifluorophenyl)ethyl N-{2-chloro-4-[(6,7-dimethoxy-4-quinazolinyl)oxy]phenyl}carbamate] | inhibition at 1 µM (c-kit; figure in parentheses in −( )): 13% |
| < 10 | 677 | – | COc1cc2nccc(Oc3ccc(NC(=O)OC(C)c4cc(F)c(F)cc4F)cc3)c2cc1OC (stereo not drawn) [Example 92, 1-(2,4,5-Trifluorophenyl)ethyl N-{4-[(6 7-dimethoxy-4-quinolyl)oxy]phenyl}carbamate] | – |
| – | – | 36 | CCN(CC)CCNC(=O)Nc1ccc(Oc2ncnc3cc(OC)c(OC)cc23)cc1OC [Example 630, N-[2-(Diethylamino)ethyl]-N′-{4-[(6,7-dimethoxy-4-quinazolinyl)oxy]-2-methoxyphenyl}urea] | inhibition at 1 µM (c-kit; [1]): 23% |
| 4 | 184 | – | COc1cc2nccc(Oc3ccc(NC(=O)OCc4ccccc4C)cc3)c2cc1OC [Example 250, 2-Methylbenzyl N-{4-[(6,7-dimethoxy-4-quinolyl)oxy]phenyl}carbamate] | – |
| – | – | 63 | COc1cc2ncnc(Oc3ccc(NC(=O)OCCN4CCOCC4)cc3)c2cc1OC [Example 399, 2-Morpholinoethyl N-{4-[(6,7-dimethoxy-4-quinazolinyl)oxy]phenyl}carbamate] | IC50 (c-kit; 50 ng/ml h-SCF): 327 nM |
| – | – | < 10 | 3-Morpholinopropyl N-{4-[(6,7-dimethoxy-4-quinolyl)oxy]-2,5-dimethylphenyl}carbamate [Example 423] | IC50 (c-kit; 50 ng/ml h-SCF): 102 nM |
| 11 | < 30 | – | COc1cc2nccc(Oc3ccc(NC(=O)OCCCOc4cccc(F)c4)cc3)c2cc1OC [Example 147, 3-(3-Fluorophenoxy)propyl N-{4-[(6,7-dimethoxy-4-quinolyl)oxy]phenyl}carbamate] | – |
| – | – | 11 | CCN(CC)CCNC(=O)Nc1ccc(Oc2ccnc3cc(OC)c(OC)cc23)cc1[N+](=O)[O-] [Example 646, N-[2-(Diethylamino)ethyl]-N′-{4-[(6,7-dimethoxy-4-quinolyl)oxy]-2-nitrophenyl}urea] | inhibition at 1 µM (c-kit; [1]): 0% |
| 6 | 111 | – | COc1cc2nccc(Oc3ccc(NC(=O)OCc4ccc(C)cc4)cc3)c2cc1OC [Example 252, 4-Methylbenzyl N-{4-[(6,7-dimethoxy-4-quinolyl)oxy]phenyl}carbamate] | – |
| – | – | 39 | COc1cc2nccc(Oc3ccc(NC(=O)N[C@@H]4CCN(Cc5ccccc5)C4)cc3)c2cc1OC [Example 564, N-[(3R)-1-Benzyltetrahydro-1H-3-pyrrolyl]-N′-{4-[(6,7-dimethoxy-4-quinolyl)oxy]phenyl}urea] | IC50 (c-kit; 50 ng/ml h-SCF): 291 nM |
| – | – | < 3 | COc1cc2nccc(Oc3ccc(NCCCOc4ccccc4)cc3)c2cc1OC [Example 885, N-{4-[(6,7-Dimethoxy-4-quinolyl)oxy]phenyl}-N-(3-phenoxypropyl)amine] | IC50 (c-kit; h-SCF stimulation): 420 nM |
| – | – | 11 | CCOc1ccc(C(=O)NC(=S)Nc2ccc(Oc3ncnc4cc(OC)c(OC)cc34)cc2)cc1 [Example 716, N-{4-[(6,7-Dimethoxy-4-quinazolinyl)oxy]phenyl}-N′-(4-ethoxybenzoyl)thiourea] | inhibition at 1 µM (c-kit; [1]): 19% |
| – | – | 10 | COc1cc2nccc(Oc3ccc(NC(=S)NC(=O)c4cccc(C)c4C)cc3Cl)c2cc1OC [Example 1018, N-{3-Chloro-4-[(6,7-dimethoxy-4-quinolyl)oxy]phenyl}-N′-(2,3-dimethylbenzoyl)thiourea] | IC50 (c-kit; h-SCF stimulation): 320 nM |
| 19 | – | – | COc1cc2nccc(Oc3ccc(NC(=O)OC(C)c4cccc(C(F)(F)F)c4)c(C)c3C)c2cc1OC (stereo not drawn) [Example 88, 1-[3-(Trifluoromethyl)phenyl]ethyl N-{4-[(6,7-dimethoxy-4-quinolyl)oxy]-2,3-dimethylphenyl}carbamate] | inhibition at 1 µM (c-kit; figure in parentheses in −( )): 45% |
| – | – | > 100 | COc1cc2nccc(Oc3ccc(NC(=O)NC4CCN(Cc5ccccc5)CC4)cc3F)c2cc1OC [Example 639, N-(1-Benzyl-4-piperidyl)-N′-{4-[(6,7-dimethoxy-4-quinolyl)oxy]-3-fluorophenyl}urea] | inhibition at 0.1 µM (PDGF-Ra): 29%; inhibition at 1 µM (c-kit; [1]): 12% |

| Compound | IC50 (PDGF-Ra; Pharmacological Test Example 1) [nM] | IC50 (c-kit; h-SCF 50 ng/ml) [nM] | IC50 (PDGF-Ra) [nM] | further results |
| --- | --- | --- | --- | --- |
| COc1cc2nccc(Oc3cc(C)c(NC(=O)Oc4c(C)cccc4C)cc3C)c2cc1OC [Example 270, 2,6-Dimethylphenyl N-{4-[(6,7-dimethoxy-4-quinolyl)oxy]-2,5-dimethylphenyl}carbamate] | 65 | 471 | – | – |
